Converted amounts (≈) assume the structure as drawn. “And” between values parts separate entries of the source, which are not always exact repeats. Equal entries are not always repeated. Structures can show the parent of a compound that is named as a salt. Where two headings read alike, the source gives them in different places.
How the values were obtained:
hairless mouse skin = experiment: in-vitro skin permeation from donor solution, Franz-diffusion cell; assay type: in vitro ADME
Method: Saturated solutions of API and API HCl were prepared in a mixture of ethanol and dodecanol (95:5) and ethanol and oleic acid (85:15), respectively.
An in-vitro permeation study was performed with the saturated solutions to show permeation of drug through mouse skin. The in-vitro experiments were conducted using a Franz-diffusion cell. The Franz-diffusion cell consists of a donor compartment and an acceptor compartment. • Skin: hairless mouse skin, female, age 6-7 weeks • Stem: Hsd: Athymic Nude-Foxn1^nu • Dermal tissue: dorsal and abdominal with all dermal layers • Breeder: Harlan Laboratories GmbH • Acceptor medium: HEPES buffer pH 7.2 • Volume acceptor: 15 mL • Volume donor: 1.0 mL • Donor solutions: • API HCl in ethanol/dodecanol (95/5) • API HCl in ethanol/oleic acid (85/15) • API in ethanol/dodecanol (95/5) • API in ethanol/oleic acid (85/15) • Permeation area: ˜1.00 cm^2 • Temperature in donor solution: 32±0.5° C. • Sampling times: 3 h, 6 h, 12 h, 18 h, 24 h • Sampling: automatic sampling system #115 • Rinsed volume: ˜7.0 mL • Sample volume: 1.0 mL • Replaced volume: 8.0 mL • Standards: • API HCl in acceptor medium • c(std A)=86.12 μg/mL • c(std B)=8.612 μg/mL • HPLC method: see above • Injection volume: variable between 3-15 μL and adjusted dilution factor

[1] = solubility of API and API HCl in different solvents; assay type: physicochemical
Method: The solubility of API and API HCl in different organic solvents and aqueous solutions is tested by transferring defined volumes of the solvents into micro vials. API and API HCl, respectively, are added until saturation. The solutions are centrifuged and the supernatants analyzed by HPLC (Table 1).

[2] = compatibility of API HCl with different adhesives; assay type: physicochemical
Method: The compatibility of the hydrochloride salt of Tapentadol (API HCl) with different types of adhesives is tested (Table 2).
Duro-Tak 87-900A: non-functional acrylic (no hydroxyl, no carboxyl groups), non-curing
Duro-Tak 87-4287: hydroxyl-functionalized polyacrylate-vinylacetate copolymer, non-curing
Duro-Tak 87-2677: carboxylate-functionalized polyacrylate-vinylacetate copolymer, self-curing
Duro-Tak 87-6911 A: tackified styrene rubber (styrene-block-butadiene-block-styrene), not functionalized
Bio PSA 7-4502: silicone adhesive.

pain = experiment: preliminary clinical trials, pain treating effect (visual analog scale); assay type: in vivo, human
From the text: Low serum concentrations of Tapentadol suffice to show an effect in individuals that are relatively sensitive and higher serum concentrations of Tapentadol are needed to show an effect in persons that are relatively unsensitive.

[3] = donor ethanol/dodecanol (95:5), time between sampling 6 h, 5th interval (sampling at 24 h)
[4] = donor ethanol/dodecanol (95:5), total dissolution time 3 h
[5] = donor ethanol/dodecanol (95:5), total dissolution time 6 h
[6] = donor ethanol/dodecanol (95:5), total dissolution time 12 h
[7] = donor ethanol/oleic (85:15), time between sampling 3 h, 1st interval (sampling at 3 h)
[8] = donor ethanol/oleic (85:15), time between sampling 3 h, 2nd interval (sampling at 6 h)
[9] = donor ethanol/oleic (85:15), time between sampling 6 h, 3rd interval (sampling at 12 h)
[10] = donor ethanol/oleic (85:15), time between sampling 6 h, 5th interval (sampling at 24 h)
[11] = donor ethanol/oleic (85:15), total dissolution time 3 h
[12] = donor ethanol/oleic (85:15), total dissolution time 6 h
[13] = donor ethanol/oleic (85:15), total dissolution time 12 h
[14] = donor ethanol/oleic (85:15), total dissolution time 18 h
[15] = donor ethanol/oleic (85:15), total dissolution time 24 h
[16] = donor ethanol/oleic (85:15), total time 3 h
[17] = donor ethanol/oleic (85:15), total time 6 h
[18] = donor ethanol/oleic (85:15), total time 12 h
[19] = donor ethanol/oleic (85:15), total time 18 h
[20] = donor ethanol/oleic (85:15), total time 24 h
[21] = donor ethanol/dodecanol (95:5), total dissolution time 18 h
[22] = donor ethanol/dodecanol (95:5), total dissolution time 24 h

## CC[C@@H](c1cccc(O)c1)[C@@H](C)CN(C)C [API HCl]
Hairless mouse skin; [3]
  flux: 810.2 μg/cm^2h and 480.5 μg/cm^2h
Hairless mouse skin; [4]
  permeated amount of API or API HCl: 0.8% and 0.2%
Hairless mouse skin; [5]
  permeated amount of API or API HCl: 2.1% and 0.7%
Hairless mouse skin; [6]
  permeated amount of API or API HCl: 8.0% and 2.6%
Hairless mouse skin; [7]
  flux: 55.4 μg/cm^2h and 63.3 μg/cm^2h
Hairless mouse skin; [8]
  flux: 107.6 μg/cm^2h and 142.2 μg/cm^2h
Hairless mouse skin; [9]
  flux: 205.0 μg/cm^2h and 234.1 μg/cm^2h
Hairless mouse skin; donor ethanol/oleic (85:15), time between sampling 6 h, 4th interval (sampling at 18 h)
  flux: 142.8 μg/cm^2h and 155.3 μg/cm^2h
Hairless mouse skin; [10]
  flux: 114.7 μg/cm^2h and 115.8 μg/cm^2h
Hairless mouse skin; [11]
  permeated amount of API or API HCl: 0.4% and 0.5%
  total permeated amount of API or API HCl: 166.2 μg/cm^2 and 189.9 μg/cm^2
Hairless mouse skin; [12]
  permeated amount of API or API HCl: 1.2% and 1.6%
  total permeated amount of API or API HCl: 489.0 μg/cm^2 and 616.7 μg/cm^2
Hairless mouse skin; [13]
  permeated amount of API or API HCl: 4.4% and 5.1%
  total permeated amount of API or API HCl: 1718.7 μg/cm^2 and 2021.1 μg/cm^2
Hairless mouse skin; [14]
  permeated amount of API or API HCl: 6.5% and 7.5%
  total permeated amount of API or API HCl: 2575.7 μg/cm^2 and 2953.1 μg/cm^2
Hairless mouse skin; [15]
  permeated amount of API or API HCl: 8.3% and 9.3%
  total permeated amount of API or API HCl: 3263.7 μg/cm^2 and 3647.7 μg/cm^2
Hairless mouse skin; [16]
  concentration of API or API HCl in sample solution: 10.859 µg/mL and 12.409 µg/mL
Hairless mouse skin; [17]
  concentration of API or API HCl in sample solution: 26.807 µg/mL and 34.414 µg/mL
Hairless mouse skin; [18]
  concentration of API or API HCl in sample solution: 94.462 µg/mL and 109.882 µg/mL
Hairless mouse skin; [19]
  concentration of API or API HCl in sample solution: 105.741 µg/mL and 118.759 µg/mL
Hairless mouse skin; [20]
  concentration of API or API HCl in sample solution: 100.635 µg/mL and 107.927 µg/mL
[1]; HEPES (pH = 7.2)
  solubility: 286 mg/mL
[1]; acetone
  solubility: 0.92 mg/mL
[1]; aqueous solutions
  solubility: excellent solubility
[1]; ethanol
  solubility: 33.1 mg/mL
[1]; ethylacetate
  solubility: 4.46 mg/mL
[1]; organic solvents like ethylacetate or acetone, ethanol and n-heptane
  solubility: hardly soluble
[1]; water (pH = 5.8)
  solubility: 298 mg/mL
[2]; carboxylate-functionalized DT 87-2677
  appearance of solution: yellowish solutions are clear
[2]; hydroxyl-functionalized polymer DT 87-4287
  appearance of solution: opaque solutions which turn slightly yellow after two weeks at room temperature
[2]; non-functionalized DT 87-900A
  appearance of solution: clear and colorless
[2]; silicone adhesive Bio PSA 7-4502, 2 and 5% of API HCl
  appearance of solution: clear and colorless

## CC[C@@H](c1cccc(O)c1)[C@@H](C)CN(C)C [API, 3-[(1R,2R)-3-(dimethylamino)-1-ethyl-2-methylpropyl]phenol]
Hairless mouse skin; compared with the hydrochloride of Tapentadol
  passes across the skin barrier: much better
Hairless mouse skin; donor ethanol/dodecanol (95:5), time between sampling 3 h, 1st interval (sampling at 3 h)
  flux: 178.1 μg/cm^2h and 263.3 μg/cm^2h
Hairless mouse skin; donor ethanol/dodecanol (95:5), time between sampling 3 h, 2nd interval (sampling at 6 h)
  flux: 314.1 μg/cm^2h and 398.7 μg/cm^2h
Hairless mouse skin; donor ethanol/dodecanol (95:5), time between sampling 6 h, 3rd interval (sampling at 12 h)
  flux: 789.1 μg/cm^2h and 1056.3 μg/cm^2h
Hairless mouse skin; donor ethanol/dodecanol (95:5), time between sampling 6 h, 4th interval (sampling at 18 h)
  flux: 2405.6 μg/cm^2h and 2492.9 μg/cm^2h
Hairless mouse skin; [3]
  flux: 1028.9 μg/cm^2h and 1038.6 μg/cm^2h
Hairless mouse skin; [4]
  permeated amount of API or API HCl: 1.0% and 1.5%
  total permeated amount of API or API HCl: 534.4 μg/cm^2 and 789.9 μg/cm^2
Hairless mouse skin; [5]
  permeated amount of API or API HCl: 2.9% and 3.9%
  total permeated amount of API or API HCl: 1476.8 μg/cm^2 and 1986.1 μg/cm^2
Hairless mouse skin; [6]
  permeated amount of API or API HCl: 12.1% and 16.2%
  total permeated amount of API or API HCl: 6211.5 μg/cm^2 and 8324.0 μg/cm^2
Hairless mouse skin; [21]
  permeated amount of API or API HCl: 40.2% and 45.4%
  total permeated amount of API or API HCl: 20644.9 μg/cm^2 and 23281.6 μg/cm^2
Hairless mouse skin; [22]
  permeated amount of API or API HCl: 52.3% and 57.5%
  total permeated amount of API or API HCl: 26818.4 μg/cm^2 and 29513.4 μg/cm^2
Hairless mouse skin; donor ethanol/dodecanol (95:5), total time 3 h
  concentration of API or API HCl in sample solution: 34.914 µg/mL and 51.610 µg/mL
Hairless mouse skin; donor ethanol/dodecanol (95:5), total time 6 h
  concentration of API or API HCl in sample solution: 79.955 µg/mL and 105.327 µg/mL
Hairless mouse skin; donor ethanol/dodecanol (95:5), total time 12 h
  concentration of API or API HCl in sample solution: 351.444 µg/mL and 469.548 µg/mL
Hairless mouse skin; donor ethanol/dodecanol (95:5), total time 18 h
  concentration of API or API HCl in sample solution: 1128.078 µg/mL and 1224.529 µg/mL
Hairless mouse skin; donor ethanol/dodecanol (95:5), total time 24 h
  concentration of API or API HCl in sample solution: 997.460 µg/mL and 1052.063 µg/mL
Hairless mouse skin; [7]
  flux: 273.5 μg/cm^2h and 441.9 μg/cm^2h
Hairless mouse skin; [8]
  flux: 1279.0 μg/cm^2h and 1897.8 μg/cm^2h
Hairless mouse skin; [9]
  flux: 458.8 μg/cm^2h and 247.0 μg/cm^2h
Hairless mouse skin; [10]
  flux: 572.1 μg/cm^2h and 382.5 μg/cm^2h
Hairless mouse skin; [11]
  permeated amount of API or API HCl: 1.7% and 2.7%
  total permeated amount of API or API HCl: 820.5 μg/cm^2 and 1325.6 μg/cm^2
Hairless mouse skin; [12]
  permeated amount of API or API HCl: 9.5% and 14.3%
  total permeated amount of API or API HCl: 4657.4 μg/cm^2 and 7019.0 μg/cm^2
Hairless mouse skin; [13]
  permeated amount of API or API HCl: 15.1% and 17.3%
  total permeated amount of API or API HCl: 7410.5 μg/cm^2 and 8500.8 μg/cm^2
Hairless mouse skin; [14]
  permeated amount of API or API HCl: 17.9% and 26.6%
  total permeated amount of API or API HCl: 8799.1 μg/cm^2 and 13084.6 μg/cm^2
Hairless mouse skin; [15]
  permeated amount of API or API HCl: 24.9% and 31.3%
  total permeated amount of API or API HCl: 12231.6 μg/cm^2 and 15379.8 μg/cm^2
Hairless mouse skin; [16]
  concentration of API or API HCl in sample solution: 53.604 µg/mL and 86.606 µg/mL
Hairless mouse skin; [17]
  concentration of API or API HCl in sample solution: 278.914 µg/mL and 417.581 µg/mL
Hairless mouse skin; [18]
  concentration of API or API HCl in sample solution: 326.763 µg/mL and 316.739 µg/mL
Hairless mouse skin; [19]
  concentration of API or API HCl in sample solution: 262.813 µg/mL and 466.288 µg/mL
Hairless mouse skin; [20]
  concentration of API or API HCl in sample solution: 362.673 µg/mL and 395.534 µg/mL
[1]; HEPES (pH = 7.2)
  solubility: 5.43 mg/mL (≈ 24.5 mM)
[1]; acetone
  solubility: 332 mg/mL (≈ 1500 mM)
[1]; aqueous solutions
  dissolved amounts of API: ≤ 5.5 mg/mL
[1]; ethanol
  solubility: 404 mg/mL (≈ 1830 mM)
[1]; ethylacetate
  solubility: 232 mg/mL (≈ 1050 mM)
[1]; n-heptane, organic solvent or mixture, thermodynamic from solid, n-heptane, read-out: solubility
  solubility: 1.27 mg/mL (≈ 5.74 mM)
[1]; organic solvents other than n-heptane
  API contents measured: higher than 230 mg/mL
[1]; water (pH = 5.8)
  solubility: 0.48 mg/mL (≈ 2.17 mM)

## CC[C@@H](c1cccc(O)c1)[C@@H](C)CN(C)C [Tapentadol, 3-[(1R,2R)-3-(dimethylamino)-1-ethyl-2-methylpropyl]phenol]
pain; serum concentration about 5 ng·ml^−1
  visual analog scale (VAS) in a population mean: approximately −2 mm
pain; serum concentration about 300 ng·ml^−1
  visual analog scale (VAS) in a population mean: approximately −15 mm

Source: US20150148759A1, “Pharmaceutical Patch for Transdermal Administration of Tapentadol” (Gruenenthal GmbH, priority 2012, published 2015)
